Laboratory results taken from patent US10815235B2, “Polycyclic compounds and uses thereof” (priority 2017, dated 2020).
Like-named read-outs stand apart in the source and are kept apart here.

How the values were obtained:
[1] = target: T1, Serotonin 5-HT2B receptor (Homo sapiens, UniProt P41595); assay: IPOne HTRF assay, agonist and antagonist mode; format: cell-based
T1 construct: expressed in transfected cells; host or cells: CHO-K1
Procedure: (§1) Antagonist and agonist activities were determined using an IPOne […] HTRF assay. The assay was prepared as follows: CHO-K1 cells expressing human recombinant Adrenergic α1A, Serotonin 5-HT2A, and 5-HT2B receptors grown to mid-log phase in culture media without antibiotics were detached with PBS-EDTA, centrifuged and resuspended in medium without antibiotics buffer. 20,000 cells were distributed in a 96 well plate and incubated overnight at 37° C. with 5% CO2.
(§2) To analyze agonist activity, the medium was removed and 20 μl of assay buffer plus 20 μl of test compound or reference agonist were added in each well. The plate was incubated for 60 min. at 37° C. with 5% CO2. EC50 values were used to determine whether a compound acted as an agonist.
(§3) To analyze antagonist activity, 20 μl of test compound or reference antagonist was added and the plate is incubated for 15 min. at 37° C. in a humidified atmosphere of 95% air with 5% CO2, then 20 μl of reference agonist at a final concentration corresponding to the historical EC80 is added. The plate is incubated for 60 min. at 37° C. with 5% CO2. IP1-D2 reagent and anti-IP1 cryptate reagents are then dispensed in the wells and IP1 concentrations are then measured following the manufacturer recommendations. IC50 values were used to determine whether a compound acted as an antagonist.

Adrenergic α1A receptor = target: T2, Adrenergic α1A receptor (Homo sapiens, UniProt P35348); assay: IPOne HTRF assay, agonist and antagonist mode; format: cell-based
T2 construct: expressed in transfected cells; host or cells: CHO-K1
T2 sequence (P35348 1-466): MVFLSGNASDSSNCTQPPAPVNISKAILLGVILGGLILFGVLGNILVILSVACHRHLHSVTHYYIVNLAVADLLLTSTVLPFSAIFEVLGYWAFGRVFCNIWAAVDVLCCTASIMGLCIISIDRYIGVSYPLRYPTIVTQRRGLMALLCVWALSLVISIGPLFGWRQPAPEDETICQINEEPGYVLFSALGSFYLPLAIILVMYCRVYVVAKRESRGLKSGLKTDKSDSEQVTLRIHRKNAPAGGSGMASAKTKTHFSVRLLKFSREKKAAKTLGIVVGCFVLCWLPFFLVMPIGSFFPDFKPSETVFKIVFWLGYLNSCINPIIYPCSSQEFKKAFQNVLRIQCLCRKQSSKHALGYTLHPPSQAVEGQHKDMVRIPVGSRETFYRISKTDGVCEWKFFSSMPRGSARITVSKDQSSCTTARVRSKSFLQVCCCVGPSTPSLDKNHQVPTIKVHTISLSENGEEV
Procedure: as §1, §2, §3

[2] = target: T3, Serotonin 5-HT2A receptor (Homo sapiens, UniProt P28223); assay: IPOne HTRF assay, agonist and antagonist mode; format: cell-based
T3 construct: expressed in transfected cells; host or cells: CHO-K1
Procedure: as §1, §2, §3

[3] = target: Serotonin 5-HT1B receptor (Homo sapiens, UniProt P28222); assay: GTPγS Scintillation Proximity Assay, agonist and antagonist mode; format: biochemical
Procedure: Antagonist and agonist activities were determined using a GTPγS Scintillation Proximity Assay. The assay was prepared as follows: Membrane extracts were prepared from recombinant human Dopamine D2L, D3; Serotonin 5-HT1A, 5-HT1B, 5-HT1D and 5-HT1F receptors.
Samples were tested by proprietary biological assays by Ogeda S. A., Euroscreen FAST Business Unit, Rue Adrienne Bolland, 47 B-6041 Gosselies, Belgium. Each protein assay was prepared using the following conditions.
5-HT1B • Assay buffer: 20 mM HEPES pH 7.4; 100 mM NaCl, 10 μg/ml saponin, 3 mM MgCl2; • Membranes: recombinant 5-HT1B membrane extracts thawed on ice and diluted in assay buffer to give 1 mg/ml (10 μg/well) and kept on ice; • GDP: diluted in assay buffer to give a 3 μM final assay concentration; • Beads: PVT-WGA (Perkin Elmer, RPNQ001), diluted in assay buffer at 50 mg/ml (0.5 mg/well); and • GTPγ^35S: (PerkinElmer NEG030X), diluted in assay buffer to give 0.1 nM.
Membranes were mixed with GDP (volume:volume 1:1) and incubated for at least 15 min on ice. In parallel, GTPγ[^35S] is mixed with the beads (volume:volume 1:1) just before starting the reaction.
To determine agonist activity, the following reagents were added in the wells of an Optiplate (Perkin Elmer): 50 μL of test or reference ligand, 10 μL of assay buffer, 20 μl of the membranes:GDP mix, and 20 μL of the GTPγ[^35S]:beads mix. EC50 values were used to determine whether a compound acted as an agonist.
To determine antagonist activity, the following reagents were added in the wells of an Optiplate (Perkin Elmer): 50 μL of test or reference ligand, 20 μL of the membranes:GDP mix, then the plate is incubated 15 minutes at room temperature. After incubation, 10 μL of reference agonist at historical EC80 (final concentration) was added, followed by 20 μL of the GTPγ[^35S]:beads mix.
The plates were covered with a top seal, mixed on an orbital shaker for 2 min, and then incubated for 1 hour at room temperature. Then the plates were centrifuged for 10 min at 2000 rpm, incubated at room temperature 1 hour and counted for 1 min/well with a PerkinElmer TopCount reader. IC50 values were used to determine whether a compound acted as an antagonist.

[4] = CHO-K1 cells, vs reference agonist at EC80, read-out: Antagonist Activity (IC50), 5-HT2B
[5] = Antagonist Activity (IC50), α1A, CHO-K1 cells, vs reference agonist at EC80
[6] = IC50 value for the Adrenergic α1A receptor, antagonist mode, bound stated
[7] = CHO-K1 cells, vs reference agonist at EC80, read-out: Antagonist Activity (IC50), 5-HT2A
[8] = CHO-K1 cells, read-out: Agonist Activity (EC50), 5-HT2A
[9] = agonist mode, bound stated, read-out: EC50 value for the Serotonin 5-HT2A receptor
[10] = antagonist mode, bound stated, read-out: IC50 value for the Serotonin 5-HT2A receptor
[11] = Antagonist Activity (IC50), 5-HT1B, membrane extracts, vs reference agonist at EC80
[12] = IC50 value for the Serotonin 5-HT1B receptor, antagonist mode, bound stated
[13] = antagonist mode, bound stated, read-out: IC50 value for the Serotonin 5-HT2B receptor

T3 sequence (P28223 whole entry): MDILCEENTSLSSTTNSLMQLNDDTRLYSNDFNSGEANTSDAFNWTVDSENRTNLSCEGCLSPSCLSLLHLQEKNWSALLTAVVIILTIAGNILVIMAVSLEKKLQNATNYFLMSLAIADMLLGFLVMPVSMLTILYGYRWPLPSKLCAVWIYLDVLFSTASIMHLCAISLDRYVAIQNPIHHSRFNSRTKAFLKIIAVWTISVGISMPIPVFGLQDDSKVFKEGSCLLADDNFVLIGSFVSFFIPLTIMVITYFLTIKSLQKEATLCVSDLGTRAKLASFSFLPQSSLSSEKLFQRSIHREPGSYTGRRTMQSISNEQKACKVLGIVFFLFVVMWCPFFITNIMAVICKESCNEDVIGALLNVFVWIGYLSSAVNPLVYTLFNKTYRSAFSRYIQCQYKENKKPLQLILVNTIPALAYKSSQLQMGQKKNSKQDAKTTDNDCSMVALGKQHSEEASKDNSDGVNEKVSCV
Sequence of Serotonin 5-HT1B receptor (P28222 whole entry): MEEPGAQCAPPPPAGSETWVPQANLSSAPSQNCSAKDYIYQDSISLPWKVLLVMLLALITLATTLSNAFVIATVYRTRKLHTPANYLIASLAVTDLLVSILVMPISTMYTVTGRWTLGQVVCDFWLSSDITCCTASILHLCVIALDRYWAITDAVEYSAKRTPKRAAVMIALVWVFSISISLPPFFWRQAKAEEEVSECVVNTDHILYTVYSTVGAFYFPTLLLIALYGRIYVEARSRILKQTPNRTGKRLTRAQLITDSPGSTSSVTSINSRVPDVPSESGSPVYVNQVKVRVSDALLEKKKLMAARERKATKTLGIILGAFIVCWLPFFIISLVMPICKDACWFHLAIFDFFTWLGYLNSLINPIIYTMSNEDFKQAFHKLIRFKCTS
T1 sequence (P41595 whole entry): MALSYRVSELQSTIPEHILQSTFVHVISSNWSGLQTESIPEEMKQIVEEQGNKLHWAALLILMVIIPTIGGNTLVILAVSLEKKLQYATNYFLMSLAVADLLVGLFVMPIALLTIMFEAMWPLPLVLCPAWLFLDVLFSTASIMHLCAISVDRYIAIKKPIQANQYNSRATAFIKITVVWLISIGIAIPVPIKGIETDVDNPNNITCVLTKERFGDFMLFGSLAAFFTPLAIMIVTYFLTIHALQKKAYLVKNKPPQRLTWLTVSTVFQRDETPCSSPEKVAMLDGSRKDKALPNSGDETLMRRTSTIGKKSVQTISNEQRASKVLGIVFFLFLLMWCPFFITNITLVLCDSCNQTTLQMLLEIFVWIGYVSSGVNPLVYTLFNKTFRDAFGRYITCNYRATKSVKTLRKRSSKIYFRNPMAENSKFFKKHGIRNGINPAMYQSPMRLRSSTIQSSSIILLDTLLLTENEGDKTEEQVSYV

Compound: CCN(CC)C(=O)N[C@H]1C[C@@H]2c3cccc4[nH]c(Br)c(c34)C[C@H]2N(C)C1 [Compound A8H, 3-((6aR,9S, 10aR)-5-bromo-7-methyl-4,6,6a,7,8,9,10,10a-octahydroindolo[4,3-fg]quinolin-9-yl)-1,1-diethylurea]
- IC50 [1, 4]: 0.052 µM
- EC50 ([1]; agonist mode, bound stated): < 1 µM
- IC50 (Adrenergic α1A receptor; [5]): 0.014 µM
- IC50 (Adrenergic α1A receptor; [6]): < 1 µM
- IC50 [2, 7]: 0.014 µM
- EC50 [2, 8]: 0.0069 µM
- EC50 [2, 9]: < 1 µM
- IC50 [2, 10]: < 1 µM
- IC50 [3, 11]: 0.41 µM
- IC50 [3, 12]: < 1 µM

Compound: CCN(CC)C(=O)N[C@H]1C[C@@H]2c3cccc4[nH]c(C(F)(F)F)c(c34)C[C@H]2N(C)C1 [Compound A9H, 1,1-diethyl-3-((6aR,9S,10aR)-7-methyl-5-(trifluoromethyl)-4,6,6a,7,8,9,10,10a-octahydroindolo[4,3-fg]quinolin-9-yl)urea]
- IC50 [1, 4]: 0.023 µM
- IC50 [1, 13]: < 1 µM
- IC50 (Adrenergic α1A receptor; [5]): 0.0091 µM
- IC50 (Adrenergic α1A receptor; [6]): < 1 µM
- IC50 [2, 7]: 0.11 µM
- EC50 [2, 8]: 0.012 µM
- EC50 [2, 9]: < 1 µM
- IC50 [2, 10]: < 1 µM
- IC50 [3, 11]: 0.11 µM
- IC50 [3, 12]: < 1 µM

Compound: CCN(CC(F)(F)F)C(=O)N[C@H]1C[C@@H]2c3cccc4[nH]c(C(F)(F)F)c(c34)C[C@H]2N(C)C1 [Compound A16H, 1-ethyl-3-((6aR,9S,10aR)-7-methyl-5-(trifluoromethyl)-4,6,6a,7,8,9,10,10a-octahydroindolo[4,3-fg]quinolin-9-yl)-1-(2,2,2-trifluoroethyl)urea]
- IC50 ([1]; Antagonist Activity (IC50), 5-HT2B, CHO-K1 cells, vs reference agonist at EC80): 0.016 µM
- IC50 ([1]; IC50 value for the Serotonin 5-HT2B receptor, antagonist mode, bound stated): < 1 µM
- IC50 (Adrenergic α1A receptor; CHO-K1 cells, vs reference agonist at EC80, read-out: Antagonist Activity (IC50), α1A): 0.015 µM
- IC50 (Adrenergic α1A receptor; [6]): < 1 µM
- IC50 ([2]; Antagonist Activity (IC50), 5-HT2A, CHO-K1 cells, vs reference agonist at EC80): 0.016 µM
- IC50 ([2]; IC50 value for the Serotonin 5-HT2A receptor, antagonist mode, bound stated): < 1 µM
- IC50 [3, 12]: < 1 µM
- IC50 ([3]; membrane extracts, vs reference agonist at EC80, read-out: Antagonist Activity (IC50), 5-HT1B): 0.34 µM

Compound: CCN(CC(F)(F)F)C(=O)N[C@H]1C[C@@H]2c3cccc4[nH]c(C5CC5)c(c34)C[C@H]2N(C)C1 [Compound A17H, 3-((6aR,9S,10aR)-5-cyclopropyl-7-methyl-4,6,6a,7,8,9,10,10a-octahydroindolo[4,3-fg]quinolin-9-yl)-1-ethyl-1-(2,2,2-trifluoroethyl)urea]
- IC50 [1, 4]: 0.025 µM
- IC50 [1, 13]: < 1 µM
- IC50 (Adrenergic α1A receptor; [5]): 0.013 µM
- IC50 (Adrenergic α1A receptor; [6]): < 1 µM
- IC50 [2, 7]: 0.011 µM
- IC50 [2, 10]: < 1 µM

Compound: CC[C@@H](CO)NC(=O)[C@@H]1C[C@@H]2c3cccc4c3c(c(C3CC3)n4C)C[C@H]2N(C)C1 [Compound D13H, (6aR,9R,10aR)-5-cyclopropyl-N—((S)-1-hydroxybutan-2-yl)-4,7-dimethyl-4,6,6a,7,8,9,10,10a-octahydroindolo[4,3-fg]quinoline-9-carboxamide]
- IC50 [1, 4]: 0.0034 µM
- IC50 [1, 13]: < 1 µM
- IC50 [2, 7]: 0.074 µM
- IC50 [2, 10]: < 1 µM
- EC50 ([3]; Agonist Activity (EC50), 5-HT1B, membrane extracts): 0.43 µM
- EC50 ([3]; EC50 value for the Serotonin 5-HT1B receptor, agonist mode, bound stated): < 1 µM
